Measured values: PMC11094663 (Journal of ethnopharmacology, 2022)
Like-named read-outs stand apart in the source and are kept apart here.

How the values were obtained:
[1] = target: T1, pregnane X receptor (PXR) (Homo sapiens, UniProt O75469); type: cell-based; conditions: for Fold induction in PXR activity: HepG2, 24 h, mean ± SD, NA = No activation
T1 sequence (O75469 1-434): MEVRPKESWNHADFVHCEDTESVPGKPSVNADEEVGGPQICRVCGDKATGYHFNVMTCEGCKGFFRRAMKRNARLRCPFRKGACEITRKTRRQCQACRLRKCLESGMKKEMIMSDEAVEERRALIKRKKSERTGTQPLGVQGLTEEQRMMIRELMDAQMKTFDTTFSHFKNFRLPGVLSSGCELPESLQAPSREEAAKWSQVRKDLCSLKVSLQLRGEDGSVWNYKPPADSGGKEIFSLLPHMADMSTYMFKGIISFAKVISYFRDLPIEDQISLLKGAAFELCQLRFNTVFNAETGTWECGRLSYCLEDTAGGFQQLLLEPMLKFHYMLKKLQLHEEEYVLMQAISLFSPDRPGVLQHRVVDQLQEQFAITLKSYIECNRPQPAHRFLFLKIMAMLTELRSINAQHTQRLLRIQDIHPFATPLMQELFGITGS

CYP3A4 = CYP3A4 (Homo sapiens, UniProt P08684); experiment: Cytochrome P450; conditions: for CYP 3A4 Inhibition - IC50: 15 min incubation, 37 °C, mean ± SD of three experiments
Sequence of CYP3A4 (P08684 whole entry): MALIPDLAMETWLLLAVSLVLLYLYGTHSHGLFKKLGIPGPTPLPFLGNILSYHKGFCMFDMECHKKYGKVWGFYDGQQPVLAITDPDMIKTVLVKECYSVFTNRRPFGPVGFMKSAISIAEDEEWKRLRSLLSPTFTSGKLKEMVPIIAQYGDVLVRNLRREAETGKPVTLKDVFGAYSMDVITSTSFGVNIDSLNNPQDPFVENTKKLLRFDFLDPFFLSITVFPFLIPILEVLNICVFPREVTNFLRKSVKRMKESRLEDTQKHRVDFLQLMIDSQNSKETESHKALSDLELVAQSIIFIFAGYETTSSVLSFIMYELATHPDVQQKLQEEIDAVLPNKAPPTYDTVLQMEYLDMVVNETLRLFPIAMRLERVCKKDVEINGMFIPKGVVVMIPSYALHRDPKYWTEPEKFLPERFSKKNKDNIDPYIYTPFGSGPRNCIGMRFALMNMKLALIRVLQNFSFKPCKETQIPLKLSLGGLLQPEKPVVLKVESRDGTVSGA

Fold induction in PXR activity ([1]; compounds at 12.5 μg/mL) [fold] | Fold induction in PXR activity ([1]; compounds at 25 μg/mL) [fold] | Fold induction in PXR activity ([1]; compounds at 50 μg/mL) [fold] | CYP 3A4 Inhibition - IC50 (CYP3A4) [µg/mL] | Molecule | further results
0.93 ± 0.04 | 1.01 ± 0.13 | 1.39 ± 0.11 | 29.00 ± 0.82 | COC(=O)C1=C[C@H](O)C[C@H]2[C@]3(C)C[C@@H](c4ccoc4)OC(=O)[C@@H]3C[C@@H](O[C@@H]3O[C@H](CO)[C@@H](O)[C@H](O)[C@H]3O)[C@@]12C [(2R,5R,6R,8R,9S, 10S,12S)-15,16-epoxy-2-hydroxy-6-O-(β-D-glucopyranosyl)-cleroda-3, 13(16),14-trien-17,12-olid-18-oicacidmethyl ester] | –
1.48 ± 0.06 | 1.67 ± 0.02 | 1.42 ± 0.06 | >100 | COc1cc(/C=C/CO)cc(OC)c1O[C@@H]1O[C@H](CO)[C@@H](O)[C@H](O[C@@H]2OC[C@](O)(CO)[C@H]2O)[C@H]1O [Tinosinen, tinosinen] | –
1.18 ± 0.09 | 1.54 ± 0.16 | 1.96 ± 0.16 | – | baenzigeride A | –
1.22 ± 0.06 | 1.47 ± 0.03 | 1.95 ± 0.04 | – | cordifoliside C | –
1.30 ± 0.08 | 1.55 ± 0.08 | 1.52 ± 0.15 | – | tinosposinoside | –

The remaining lines, values behind:

Molecule | Fold induction in PXR activity ([1]; compounds at 12.5 μg/mL) [fold] | Fold induction in PXR activity ([1]; compounds at 25 μg/mL) [fold] | Fold induction in PXR activity ([1]; compounds at 50 μg/mL) [fold] | CYP 3A4 Inhibition - IC50 (CYP3A4) [µg/mL] | further results
COC(=O)C1=C[C@H](O)C[C@H]2[C@]3(C)C[C@@H](c4ccoc4)OC(=O)[C@H]3C[C@H](O[C@@H]3O[C@H](CO)[C@@H](O)[C@H](O)[C@H]3O)[C@@]12C [Borapetoside B, borapetoside B] | – | – | – | – | IC50 (CYP3A4): 181 µM
COC(=O)C1=CCC[C@H]2[C@]3(C)C[C@@H](c4ccoc4)OC(=O)[C@@H]3C[C@@H](O[C@@H]3O[C@H](CO)[C@@H](O)[C@H](O)[C@H]3O)[C@@]12C [Borapetoside C, borapetoside C] | – | – | – | – | IC50 (CYP3A4): 69.9 µM
COC(=O)C1=CCCC2C3(C)CC(c4ccoc4)OC(=O)C3=CC(OC3OC(CO)C(O)C(O)C3O)C12C (stereo not shown) [Borapetoside F, borapetoside F] | – | – | – | 13.00 ± 0.82 | –
C[C@@]12C[C@@H](c3ccoc3)OC(=O)[C@@H]1CC[C@]1(C)[C@H]2[C@@H]2C=C[C@@]1(O)C(=O)O2 [Columbin, columbin] | – | 2.89 ± 0.62 | 3.58 ± 0.61 | – | PXR activation (fold) ([1]; concentration not given): 3 fold
C=C(CC[C@@H](C)[C@H]1CC[C@@]2(C)[C@@H]3CC[C@H]4[C@H](C)[C@@H](O)CC[C@@]45C[C@@]35CC[C@]12C)C(C)C [Cycloeucalenol, cycloeucalenol] | – | – | – | – | fold induction at 24 h, 12.5 μg/mL ([1]; human): 1.42 ± 0.06; fold induction at 24 h, 25 μg/mL ([1]; human): 1.91 ± 0.23; fold induction at 24 h, 50 μg/mL ([1]; human): 2.42 ± 0.3
COc1cc(/C=C/C(=O)NCCc2ccc(O)cc2)ccc1O [N-trans-feruloyl tyramine] | – | – | – | – | fold induction at 24 h, 12.5 μg/mL ([1]; human): 1.59 ± 0.07; fold induction at 24 h, 25 μg/mL ([1]; human): 2.16 ± 0.27; fold induction at 24 h, 50 μg/mL ([1]; human): 2.29 ± 0.41; IC50 (CYP3A4): 8.62 µM
COc1cc2c(cc1OC)-c1cc3ccc(OC)c(OC)c3c[n+]1CC2 [Palmatine, palmatine] | 1.08 ± 0.00 | 1.30 ± 0.00 | 1.43 ± 0.00 | 34.00 ± 0.00 | –
CO[C@H]1/C=C/O[C@@]2(C)Oc3c(C)c(O)c4c(O)c(c(/C=N/N5CCN(C)CC5)c(O)c4c3C2=O)NC(=O)/C(C)=C\C=C\[C@H](C)[C@H](O)[C@@H](C)[C@@H](O)[C@@H](C)[C@H](OC(C)=O)[C@@H]1C [Rifampicin, reference compound] | – | – | – | – | fold induction at 24 h, 5 µM ([1]; human): 3.24 ± 0.15; fold induction at 24 h, 10 µM ([1]; human): 3.25 ± 0.08
CC(=O)O[C@@H]1[C@@H]2[C@H](CC[C@@]3(O)C(=O)O[C@H](c4ccoc4)C[C@@]23C)[C@H](O[C@@H]2O[C@H](CO)[C@@H](O)[C@H](O)[C@H]2O)C[C@@H]1O [Tinosineside A, tinosineside A] | 1.42 ± 0.06 | 1.50 ± 0.00 | 1.53 ± 0.11 | 45.00 ± 5.72 | –
